Where a name gives a salt, the structure may show the parent alone. Starred links: 1 amine or outer side, 2 acyl side, 3 side chain; linkers in the order of their positions; H or OH if unused. Positions of bridges follow the written chain, without caps; N, C: chain ends. Non-standard residues stand in square brackets, D forms with d. Residues, ends and D or L forms follow the SMILES beside them. Chains are numbered I, II in the order given. No end group written: not given here. Actinocin(9to1) = Cc1c2oc3c(C)ccc(C(=O)[*:1])c3nc-2c(C(=O)[*:2])c(N)c1=O; NMeV = CN[C@H](C(=O)O)C(C)C; Sar = CNCC(=O)O
Columns and labels:
[1] = system: striatal, cortical, and hippocampal neurons; experiment: SP-induced cell death in primary striatal, cortical and hippocampal neurons, trypan blue viability and staining; assay type: cell-based, rat; conditions: for effect on neuronal cell death in response to SP: added 30 min before SP: 10 μM PD 98059, 50 nM Calphostin C, 10 μM Rp-8-Br-cAMPS; for effect on SP-induced cell death: 1 μg/ml; for effect on SP-induced cell death / effect on SP-induced neuronal cell death: added at the same time as SP; for effect on SP-induced neuronal cell death: 5 nM L-732,138, 1 nM L-733,060
Protocol: Rat neuronal primary cell cultures were also used to assay for inducers and inhibitors of paraptosis. Briefly, primary striatal, cortical and hippocampal cultures were prepared from 17-day-old Sprague-Dawley rat embryos (B&K). The tissue was dissected, minced and trypsinized for five minutes using 0.25% trypsin (Cell Grow). After the addition of 10% horse serum (Life Technologies) to inhibit the trypsin, the cell suspension was triturated 15–20 times with a 10 ml syringe and centrifuged for five minutes at 800×g. The pellet was resuspended in MEM-PAK (UCSF Cell Culture facility), supplemented with 2.02 gm glucose, 2 mM GLUTAMAX™ (Life Technologies) and penicillin/streptomycin (100 U/ml). The suspension was filtered through a […] cell strainer and the final culture medium contained 5% horse serum. Subsequently, 3-4×10^5 cells per Cm^2 were seeded onto either poly-D-lysine precoated 8-well chamber slides (Becton-Dickson Labware) or 96 well plates precoated with […] of poly-D-lysine (Sigma) in water. After 30 minutes of incubation time, unattached cells were removed together with the medium and replaced with glucose enriched MEM-PAK plus 5% horse serum. The cultures were then incubated at 37° C. in 95% air 5% carbon dioxide with 95% humidity. Cultures were used for experiments between day 1 and day 7 when glial contamination was at a minimum.
Primary neuronal cells were prepared as described in Example I. SP (SIGMA) at a concentration of 0.1 nM–100 μM was added 24–48 hrs after seeding, in the presence of 2.5% horse serum. When the cultures were maintained for more than 5 days, 10 μM cytosine arabinoside was added for 24 hours, beginning 3 days after plating the cells. Viability was quantified by trypan blue staining of the total cell population.
The following compounds were added at the same time as SP in the indicated experiments: 5 nM L-732, 138; 1 nM L-733,060; 1 μg/ml Actinomycin D or 1 μg/ml Cycloheximide. All of these compounds were obtained from SIGMA. The caspase inhibitors zVAD.fmk and BAF were added at 50 μM and obtained from Enzyme System Products, Livermore, Calif.
Either neuronal primary cultures or human embryonic kidney 293T cells were fixed with 4% paraformaldehyde and stained with 0.5 μg/ml DAPI (Molecular Probes) or Hoechst(SIGMA). […]
The protein kinase inhibitors were added 30 min before SP exposure at the following concentrations: 10 μM Rp-8-Br-cAMPS (adenosin 3′,5′-cyclic monophosphorothioate, 8-bromo-, Rp-isomer, sodium salt) which is a PKA inhibitor; 50 nM Calphostin C, which is a PKC inhibitor; 10 μM PD 98059 which is a MAPKK (MEK) inhibitor. These compounds were obtained from Calbiochem. Viability was quantified by trypan blue staining of the total cell population.

[2] = system: IGFIR-IC transfected 293T cells; experiment: Inhibition of IGFIR-IC induced paraptosis in transfected 293T cells, LDH assay; assay type: cell-based, human; conditions: added at the time of transfection
Protocol: Paraptosis was induced in 293T cells by expressing the intracellular domain of the insulin-like growth factor I receptor (IGFIR-IC) in these cells using transient transfection as described above.
(§1) Test compounds were added to IGFIR-IC transfected 293T cells at the time of transfection.
The TRAF2 dominant negative mutant contains a deletion of the amino terminal 271 amino acids of the protein. The ratio of IGFIR-IC:AIP1 and IGFIR-IC:TRAF2DN was 1:3. […] Antisense oligonucleotide constructs for JNK1 or JNK2 (50–100 nM) were transfected into 293T cells one day before transfection with the IGFIR-IC construct. For all inhibition assays, cell viability was measured using the LDH assay.

[3] = system: paraptosis induced by caspase 7, caspase 8 or caspase 9; experiment: Inhibition of paraptosis induced by caspases; assay type: cell-based
Protocol: as §1

[4] = system: caspases, calpains, proteasome; experiment: Protease activation during SP-induced cell death, substrate hydrolysis in cytosolic extracts of NK1R-transfected 293T cells; assay type: biochemical, human; conditions: added to cytosolic extract of NK1R-transfected 293T cells
Protocol: Preparation of cell-free extract for kinetic studies: 293T cells seeded at the density of 2 million cells per 10 cm dish were transfected with NK1R cDNA using Lipofectamine 2000 (Gibco) according the instructions provided by the manufacturer. After 24 hr 10 nM SP was added to half of the culture dishes. At 24 hr later the cells were washed with ice cold PBS and collected with a cell scraper. The cells pelleted at 700×g for 4 min were resuspended in cell lysis buffer at pH 7.4 containing 1 mM dithiothreitol at a ratio of 1:1 (v/v). After 30 min on ice the swelled cells were disrupted with 20 strokes using a 27 gauge needle and further spun at 16,000×g for 30 min. The pellet was discarded and the supernatant which represents the cytosolic fraction was aliquoted and stored at −80° C. or used in the kinetic studies. The protein concentration was determined using the Bradford assay (Pierce).
For kinetic studies, the proteolytic activities were followed fluorometrically by monitoring AFC or AMC release from 100 μM of the corresponding substrates (Enzyme Systems Products): Caspase-1 like, Ac-YVAD-AFC; caspase-2, Ac-VDVAD-AFC; caspases-3 like, Ac-DEVD-AFC; caspase-6, Ac-VEID-AFC; caspase-8, Ac-IETD-AFC; caspase-9, Ac-LEHD-AFC. Calpain activity was monitored with 100 μM Suc-LY-AFC (succinyl-Leu-Tyr-7-amino-4-methylcoumarin, Enzyme Systems Products) at 5 μM and 5 mM CaCl2. The chymotrypsin activity of the proteasome was followed with 100 μM Suc-LLVY-AFC (succinyl-Leu-Leu-Val-Tyr-7-amino-4-methylcoumarin, Enzyme Systems Products), and cathepsins were assayed using 20 μM Z-FR-AMC (Benzyloxycarbonyl-Phe-Arg-7-amino-4-methylcoumarin, Bachem). A 10 μl aliquot of extract in the presence or absence of SP was added to 90 μl of substrate at the appropriate concentration and pH. The reaction was continuously monitored during 30 min and 37° C. in a fluorescence microplate reader (Molecular Devices). The instrument was set at excitation and emission wavelengths of 405 and 510 for AFC releasing group, and 370 and 460 nm, for AMC releasing group, respectively. The steady-state hydrolysis rates were obtained from the linear part of the curves.

293T cells = experiment: Induction of paraptosis in 293T cells, LDH cell death assay; assay type: cell-based, human; conditions: for induction of paraptosis when expressed: pcDNA3 construct transiently transfected into 293T cells
Protocol: Human embryonic kidney 293T cell line cells were used to assay for inducers and inhibitors of paraptosis. These cells were cultured in high glucose DMEM (Life Technologies) supplemented with 10% FBS (Sigma) and 1% penicillin/streptomycin (Life Technologies). The cultures were incubated at 37° C. in 95% air 5% carbon dioxide with 95% humidity.
Subsequently, compounds were added to 293T cells and/or rat neuronal primary cell culture cells in order to determine if the compounds could induce paraptosis. Cell death was assayed using the lactate dehydrogenase (LDH) assay, in which the relative amount of enzyme released from dying cells in the medium is measured by following the disappearance of nicotinamide adenine dinucleotide, reduced form (NADH) in the following reaction: pyruvate+NADH <−>NAD^++ lactate. Briefly, 50 μl of culture medium for either 293T cells or 100 μl of culture medium for neuronal primary culture were dispensed in a 96 well plate to which 100 μl of a solution consisting of 5 mg of NADH dissolved in 20 ml of PBS and 0.5 ml of 100 mM NaPyruvate. NADH disappearance was assessed by kinetic photmetric readings at a 340 nm wavelength at 19 minute intervals over a period of 2 hours and 30 minutes.
Constructs of pcDNA3 containing procaspase-7 or procaspase-8 were transiently transfected into 293T cells using Lipofect-Amine (GIBCO-BRL) according to the manufacturer's instructions. Briefly, 1×10^6 293T cells were seeded in 6 cm dishes, and transfected the next day using a ratio of DNA:Lipofect-Amine of 1 μg:5 μl. Transfection efficiency was 60–80% for 293T cells, as determined by X-gal staining after transfection of a β-galactosidase construct.

For Calphostin C, the “effect on neuronal cell death in response to SP” value [1] was “no protective effect”.

With “neurokinin A: NK1R agonist that does not exhibit mitochondrial toxicity (HKTDSFVGLM; ends and bridges not checked; UniProt P20366 98-107, looked up)” the “induction of cell death by NK1R agonists” value ([1]; compared with SP) was “able to induce cell death as well as SP”.

For `O=S(=O)(NCCNC/C=C/c1ccc(Br)cc1)c1cccc2cnccc12` [H89], the “concentration able to inhibit IGFIR-IC induced paraptosis” value [2] was 10 to 20 µM.

With `c1cnc2c(c1)ccc1cccnc12` [1–10-phenantroline] the “concentration able to inhibit IGFIR-IC induced paraptosis” value [2] was 0.05 µM, the “inhibition of paraptosis induced by caspase 8” value [3] was “able to inhibit paraptosis” and the “inhibition of paraptosis induced by caspase 9” value [3] was “able to inhibit paraptosis”.

`C[C@@H]1C[C@@H]([C@H](O)CC2CC(=O)NC(=O)C2)C(=O)[C@@H](C)C1` [cyclohexamide] was tested, and the “effect on SP-induced cell death” value [1] was “prevented”.

For “D form of SP: D isomer of substance P ([dR][dP][dK][dP][dQ][dQ][dF][dF]G[dL][dM]; ends and bridges not checked)”, the “effect of SP isomer on neuronal cell death” value ([1]; L or D isomer) was “no effect on cell death”.

With “granzyme B: serine protease that activates procaspase-3” the “increase of DEVDase activity” value [4] was 7 fold.

For `FC(F)(F)c1cc(CO[C@H]2CCCN[C@H]2c2ccccc2)cc(C(F)(F)F)c1` [L-733,060], the “effect on SP-induced neuronal cell death” value [1] was “inhibited SP-induced cell death”.

In the case of `Nc1ncnc2c1nc(Br)n2C1OC2COP(O)(=S)OC2C1O` (single isomer, unassigned) [Rp-8-Br-cAMPS, adenosin 3′,5′-cyclic monophosphorothioate, 8-bromo-, Rp-isomer, sodium salt], the “effect on neuronal cell death in response to SP” value [1] is reported as “no protective effect”.

For `Cc1c2oc3c(C)ccc(C(=O)N[C@@H]4C(=O)N[C@H](C(C)C)C(=O)N5CCC[C@H]5C(=O)N(C)CC(=O)N(C)[C@@H](C(C)C)C(=O)O[C@@H]4C)c3nc-2c(C(=O)N[C@@H]2C(=O)N[C@H](C(C)C)C(=O)N3CCC[C@H]3C(=O)N(C)CC(=O)N(C)[C@@H](C(C)C)C(=O)O[C@@H]2C)c(N)c1=O` [actinomycin D] (I: T[dV]P[Sar][NMeV] / II: T[dV]P[Sar][NMeV]; ester I:1-I:C, II:1-II:C; linker I:N-II:N via Actinocin(9to1)), the “effect on SP-induced cell death” value [1] was “prevented”.

With Tumor Necrosis Factor-α the “concentration at which found to induce paraptosis” value (293T cells; 293T cells) was 1 to 10 ng/mL.

In the case of `CC(=O)N[C@@H](Cc1c[nH]c2ccccc12)C(=O)OCc1cc(C(F)(F)F)cc(C(F)(F)F)c1` [L-732,138], the “effect on SP-induced neuronal cell death” value [1] is reported as “inhibited SP-induced cell death”.

B1: procaspase-7: procaspase-7 expressed in 293T cells from a pcDNA3 construct (protein, UniProt P55210 2-303, looked up)
pro-form: ADDQGCIEEQGVEDSANEDSVDAKPDRSSFVPSLFSKKKKNVTMRSIKTTRDRVPTYQYNMNFEKLGKCIIINNKNFDKVTGMGVRNGTDKDAEALFKCFRSLGFDVIVYNDCSCAKMQDLLKKASEEDHTNAACFACILLSHGEENVIYGKDGVTPIKDLTAHFRGDRCKTLLEKPKLFFIQACRGTELDDGIQADSGPINDTDANPRYKIPVEADFLFAYSTVPGYYSWRSPGRGSWFVQALCSILEEHGKDLEIMQILTRVNDRVARHFESQSDDPHFHEKKQIPCVVSMLTKELYFSQ
modifications: pro-form
notes: procaspase-7 expressed in 293T cells from a pcDNA3 construct
In the case of B1, the “induction of paraptosis when expressed” value (293T cells) is reported as “able to induce paraptosis”.

B2: procaspase-8: procaspase-8 expressed in 293T cells from a pcDNA3 construct (protein, UniProt Q14790 1-479, looked up)
pro-form: MDFSRNLYDIGEQLDSEDLASLKFLSLDYIPQRKQEPIKDALMLFQRLQEKRMLEESNLSFLKELLFRINRLDLLITYLNTRKEEMERELQTPGRAQISAYRVMLYQISEEVSRSELRSFKFLLQEEISKCKLDDDMNLLDIFIEMEKRVILGEGKLDILKRVCAQINKSLLKIINDYEEFSKERSSSLEGSPDEFSNGEELCGVMTISDSPREQDSESQTLDKVYQMKSKPRGYCLIINNHNFAKAREKVPKLHSIRDRNGTHLDAGALTTTFEELHFEIKPHDDCTVEQIYEILKIYQLMDHSNMDCFICCILSHGDKGIIYGTDGQEAPIYELTSQFTGLKCPSLAGKPKVFFIQACQGDNYQKGIPVETDSEEQPYLEMDLSSPQTRYIPDEADFLLGMATVNNCVSYRNPAEGTWYIQSLCQSLRERCPRGDDILTILTEVNYEVSNKDDKKNMGKQMPQPTFTLRKKLVFPSD
modifications: pro-form
notes: procaspase-8 expressed in 293T cells from a pcDNA3 construct
In the case of B2, the “induction of paraptosis when expressed” value (293T cells) is reported as “able to induce paraptosis”.

Reference: patent US6994981B2, “Modulators of paraptosis and related methods” (The Buck Institute, priority 2002, dated 2006)
